Results from ChEMBL document CHEMBL2384978, “The opposite effect of isotype-selective monoamine oxidase inhibitors on adipogenesis in human bone marrow mesenchymal stem cells” (2013).
Active and inactive are the calls of the source. No cut-off for these calls is given here.

Assays:
Assay type in all cases: functional
[1] = Induction of adipogenesis in human bone marrow MSC assessed as formation of intracellular lipid droplets at 10 uM after 15 days by oil red O staining in IDX condition relative to control
[2] = test system: MSC; assay: Induction of adipogenesis in human bone marrow MSC assessed as adiponectin production at 30 uM after 14 days by ELISA relative to control
[3] = test system: MSC; assay: Induction of SSAO-mediated adipogenesis in human bone marrow MSC assessed as adiponectin level at 0.1 to 1 mM after 14 days by ELISA
[4] = test system: MSC; assay: Induction of adipogenesis in human bone marrow MSC assessed as AOC3 up-regulation by RT-PCR analysis
[5] = test system: MSC; assay: Induction of adipogenesis in human bone marrow MSC assessed as adiponectin up-regulation by RT-PCR analysis
[6] = test system: MSC; assay: Induction of adipogenesis in human bone marrow MSC assessed as MAO-A up-regulation by RT-PCR analysis
[7] = test system: MSC; assay: Induction of adipogenesis in human bone marrow MSC assessed as MAO-B up-regulation by RT-PCR analysis
[8] = test system: MSC; assay: Induction of adipogenesis in human bone marrow MSC assessed as PPARgamma up-regulation by RT-PCR analysis
[9] = test system: MSC; assay: Induction of adipogenesis in human bone marrow MSC assessed as AOC2 up-regulation by RT-PCR analysis
[10] = test system: MSC; assay: Induction of adipogenesis in human bone marrow MSC assessed as adiponectin production after 14 days by ELISA in IDX condition

NCCNC(=O)c1ncsc1-c1cccc(F)c1
Activity [1]: 49% | Activity [2]: Active

NNC(N)=O
Activity [3]: inactive

N[C@@H]1C[C@H]1c1ccccc1.N[C@H]1C[C@@H]1c1ccccc1 (racemic) [TRANYLCYPROMINE]
Activity [1]: 79%

COc1ccc(Cl)cc1C(=O)NCCc1ccc(S(=O)(=O)NC(=O)NC2CCCCC2)cc1 [GLYBURIDE]
Activity [4]: Active | Activity [5]: Active | Activity [6]: Active | Activity [7]: Active | Activity [8]: Active | Activity [1]: 134% | Activity [9]: Active

O=C(NCCN1CCOCC1)c1ccc(Cl)cc1 [MOCLOBEMIDE]
Activity [10]: Dose-dependent effect | Activity [1]: 146%

C#CCN(C)Cc1ccccc1 [PARGYLINE]
Activity [1]: 54% | Activity [2]: Active

NNCCc1ccccc1 [PHENELZINE]
Activity [1]: 85%

C#CCN(C)[C@H](C)Cc1ccccc1 [SELEGILINE]
Activity [10]: Dose-dependent effect | Activity [1]: 105%
